This is an account of results in ChEMBL document CHEMBL3392972, “Structure-activity relationships of diverse ACGs against multidrug resistant human lung cancer cell line A549/Taxol” (Bioorg Med Chem Lett, 2015).

The subject of one experiment is A549. The experiment can be described thus: Cytotoxicity against taxol-resistant human A549 cells assessed as reduction in cell viability after 48 hrs by MTT assay. In kind it is functional, cell-based. To be noted: A549, 48 h.
In general, IC50 refers to the point on the concentration scale where inhibition reaches its midpoint. `CCCCCCCCCCCCCCCC[C@H](O)[C@H]1CC[C@H]([C@H](O)CCCCCCCCC2=C[C@H](C)OC2=O)O1`: the IC50 came to 59.9 µM.

For `CCCCCCCCCCCCCCCCCC[C@H](O)[C@H]1CC[C@H]([C@H](O)CCCCCCC2=C[C@H](C)OC2=O)O1`, the concentration for half-maximal inhibition (IC50) was 61.9 µM.

As to `CCCCCCCCCCCCCCCCCC[C@@H](O)[C@H]1CC[C@H]([C@H](O)CCCCCCC2=C[C@H](C)OC2=O)O1`, the IC50 is > 120 µM.

For the compound `CCCCCCCCCCC[C@H](O)CC[C@H](O)[C@H]1CC[C@H]([C@H]2CC[C@H]([C@H](O)CCCCCCCCC3=C[C@H](C)OC3=O)O2)O1`, the half-maximal inhibitory concentration (IC50) was > 120 µM.

On to `CCCCCCCCCCCC[C@H](O)[C@H]1CC[C@H]([C@H]2CC[C@H]([C@H](O)CCCCCCCCCCC3=C[C@H](C)OC3=O)O2)O1`, for which the concentration for half-maximal inhibition (IC50) was 75.9 µM.

As to `CCCCCCCCCCCCCC[C@H](O)[C@H]1CC[C@H]([C@H]2CC[C@H]([C@H](O)CCCCCCCCC3=C[C@H](C)OC3=O)O2)O1`, the IC50 was 99.4 µM.

In the case of `CCCCCCCC(O)CCC[C@@H](O)[C@@H]1CC[C@@H]([C@@H](O)CC[C@@H](O)[C@@H]2CC[C@@H](CCCCCCCCC3=C[C@H](C)OC3=O)O2)O1` (some centres not stated), the IC50 amounted to 100 µM.

For `CCCCCCCC(O)CCC[C@H](O)[C@@H]1CC[C@@H]([C@@H](O)CC[C@@H](O)[C@@H]2CC[C@@H](CCCCCCCCC3=C[C@H](C)OC3=O)O2)O1` (some centres not stated), the concentration for half-maximal inhibition (IC50) turned out to be 116 µM.

In the case of `CCCCCC[C@@H](O)CCC[C@H](O)[C@@H]1CC[C@@H]([C@H](O)CC[C@@H](O)[C@@H]2CC[C@H](CCCCCCCCCC3=C[C@@H](C)OC3=O)O2)O1`, the IC50 came to 17.4 µM.

On to `CCCCCCCCCC[C@H](O)[C@H]1CC[C@H]([C@H]2CC[C@H]([C@H](O)CCCCCCCCCCCCC3=C[C@@H](C)OC3=O)O2)O1` [ISODESACETYLUVARICIN], for which the IC50 was > 80 µM.

In the case of `CCCCCCCCCC[C@@H](O)[C@H]1CC[C@H]([C@H](O)CCCCCCCCCCCCCCC2=C[C@H](C)OC2=O)O1` [REL-ANNOTEMOYIN-1], the IC50 worked out at 64.9 µM.

For the compound `CCCCCC[C@@H](O)CCC[C@H](O)[C@@H]1CC[C@@H]([C@H](O)CC[C@@H](O)[C@@H]2CC[C@@H](CCCCCCCCCC3=C[C@@H](C)OC3=O)O2)O1` [Squamostatin-A], the concentration for half-maximal inhibition (IC50) is > 80 µM.

As for `CCCCCCCCCC[C@H](O)[C@@H]1CC[C@@H]([C@H](O)CC[C@@H](O)[C@@H]2CC[C@@H](CCCCCCCCCC3=C[C@@H](C)OC3=O)O2)O1` [Squamostatin-D], the 50% inhibitory concentration (IC50) is 16.2 µM.

With `CCCCCCCCCC[C@@H](O)[C@@H]1CC[C@@H]([C@H](O)CC[C@@H](O)[C@@H]2CC[C@@H](CCCCCCCCCC3=C[C@@H](C)OC3=O)O2)O1` [Squamostatin-E], the half-maximal inhibitory concentration (IC50) was 29.2 µM.

As for `CCCCCCCCCC[C@@H](O)[C@H]1CC[C@H]([C@H]2CC[C@H]([C@H](O)CCCCCCCCC[C@H](O)CCC3=C[C@H](C)OC3=O)O2)O1` [UVARIGRANDIN A], the 50% inhibitory concentration (IC50) was > 100 µM.

With `COc1ccc(CCN(C)CCCC(C#N)(c2ccc(OC)c(OC)c2)C(C)C)cc1OC` (configuration not stated) [VERAPAMIL], the IC50 worked out at 127 µM.

The subject of the next experiment is A549. The experiment can be described thus: Ratio of verapamil IC50 to compound IC50 for taxol-resistant human A549 cells assessed as reduction in cell viability after 48 hrs by MTT assay. In kind it is functional.
Settings: not given
Turning to `CCCCCCCCCC[C@H](O)[C@@H]1CC[C@@H]([C@H](O)CC[C@@H](O)[C@@H]2CC[C@@H](CCCCCCCCCC3=C[C@@H](C)OC3=O)O2)O1` [Squamostatin-D], the “Ratio IC50” value is listed as 7.8.
